Read-outs that look alike come from different tables or passages of the source.
Columns and labels:
Solubility in water = type: physicochemical; details: low solubility at low pH, increases with pH
[1] = Cell permeability of dissolved recoflavone; type: in vitro ADME; details: dissolved state, high degree of ionization
rabbit eyes = experiment: Drug distribution in eye tissues after eye drop administration to rabbit eyes; type: in vivo; details: 3% eye drop administered to rabbit eyes (data not shown)
Text: It has a property with low solubility at low pH. As the pH increases, it is ionized and its solubility increases.

[2] = system: human keratoconjunctival epithelial cells; details: cited from earlier work
[3] = cited from earlier work

Solubility in water (Solubility in water): practically insoluble in water
Cell permeability [1]: poor cell permeability
Compound: COc1ccc(-c2cc(=O)c3c(OC)cc(OCC(=O)O)cc3o2)cc1OC [recoflavone, 2-((2-(3,4-dimethoxyphenyl)-5-methoxy-4-oxo-4H-chromen-7-yl)oxy) acetic acid]
Drug distribution in each tissue of eye with time (rabbit eyes): rarely distributed in the tissues located inside the eye and mainly distributed in the surrounding tissues outside of the eye
Thickness of the mucin layer ([2]; 100 μM solution of the active ingredient): significantly increased
Mucin proteins by Western blot analysis ([2]; Western blot): MUC5AC only had a tendency to increase
Mucin expression MUC1, MUC4, MUC16 and MUC5AC by real-time PCR ([2]; real-time PCR): tendency to increase significantly for four hours and then decreased rapidly
Hygroscopicity ([3]; form of a hydrate): stable without hygroscopicity
Hygroscopicity ([3]; form of an anhydride): has hygroscopicity
